Active and inactive are the calls of the source.
Legend:
Assay type in all cases: functional, organism-based
Bacillus cereus = assay: Antimicrobial activity against Bacillus cereus at 150 ug/disk
Bacillus subtilis = assay: Antimicrobial activity against Bacillus subtilis at 150 ug/disk
Escherichia coli = assay: Antimicrobial activity against Escherichia coli at 150 ug/disk
Saccharomyces cerevisiae = assay: Antimicrobial activity against Saccharomyces cerevisiae at 150 ug/disk
[1] = tested on: Cladosporium cladosporioides; assay: Antimicrobial activity against Cladosporium cladosporioides at 150 ug/disk

Measured: Activity

COc1ccc([C@@H](O)[C@H](C)O)cc1Cl
inactive: all assays above

From ChEMBL document CHEMBL1159282, “Secondary Mold Metabolites, Part 49. Isolation, Structural Elucidation, and Biomimetic Synthesis of Trametol, a New 1-Arylpropane-1,2-diol Produced by the Fungus Trametes sp” (J Nat Prod, 1995)
